# Test results published in paper PMC10307035, “Antiviral activity of singlet oxygen-photogenerating perylene compounds against SARS-CoV-2: Interaction with the viral envelope and photodynamic virion inactivation” (Virus Research, 2023).
# Experiments:
# [1] = ROS generation rate / quantum yield, DPBF bleaching in methanol; format: physicochemical; settings: for φROS (ROS generation quantum yield): in methanol, DPBF trap, 450–470 nm illumination, riboflavin as reference
# Text: The ROS generation rate was estimated using the spectrophotometric method, based on the absorption changes of 1,3-diphenylisobenzofuran (DPBF, Sigma Aldrich, Germany) in methanol solution. Irreversible oxidation of DPBF by singlet oxygen results in peroxide formation, and DPBF bleaching. When light of 400–450 nm was used as actinic, DPBF bleaching occurred without any photosensitizer (PS) in solution. Therefore, to study photosensitized ROS generation, we used a white MCWHLP1 LED (Thorlabs, USA) with filters to limit the radiation to the 450–470 nm range (5.5 mW/cm^2).
# Spectrophotometric measurements were performed in a Qpod 2e (Quantum Northwest, USA) thermostated cuvette holder at 25 °C with magnetic stirring (500 rpm). Absorption spectra were recorded using a MayaPro spectrophotometer (Ocean Optics, USA) and a stabilized white light source with a SLS201L tungsten lamp (Thorlabs, USA). Illumination was uniform over the entire volume of the cuvette, to prevent artifacts associated with the diffusion of non-reacted components into the illuminated volume of the cuvette. In this case, the rate of irreversible bleaching of DPBF (412 nm) was the same under both continuous and pulsed irradiation with equal total irradiation time. Illumination was performed in a pulsed mode (Fig. S5A), with 1 s of illumination followed by 5 s of dark adaptation, during which the absorption spectrum of the PS-DPBF solution was recorded. Data processing was performed as previously described ([Gvozdev et al., 2020]).
# Vero cells [2] = assay: Light-induced cytotoxicity in Vero cells; format: cell-based, African Green Monkey; settings: 0–10 µM, 465–480 nm 10 min, then 24 h in the dark
# Protocol: To determine the light-induced cytotoxicity of the tested compounds, Vero cells were cultured for 24 h in 96-well plates to form a confluent monolayer, and then were treated with the tested compounds at concentrations of 0 to 10 µM. Then, the compound-treated cells were irradiated for 10 min at RT with LEDs (465–480 nm) having an approximate power density of 30 mW/cm^2 (device description in Fig. S7). As a negative control, compound-treated cells were incubated for 10 min in the dark at RT. Subsequently, both irradiated and non-irradiated cell monolayers were incubated in the dark at 37 °C for 24 h. Then, the cell culture medium was aspirated and the potential cytotoxicity of the tested perylene derivatives was determined based on cell viability using Cell Counting Kit-8 (Dojindo Molecular Technologies, Munich, Germany) according to the manufacturer's instructions.
# SARS-CoV-2 = assay: Photodynamic inactivation of SARS-CoV-2 virions; format: cell-based; settings: for antiviral activity after blue light irradiation of virus-compound mixture: 465–480 nm, 30 mW/cm^2, 10 min, then 60 min at 37 °C in the dark, plaque assay
# Protocol: Virus in DMEM (titer of 10^5 PFU/mL) was mixed with the compounds (0–10 µM) in a microtiter plate, in triplicate, and irradiated for 10 min at RT with LEDs (465–480 nm) having an approximate power density of 30 mW/cm^2 (device description in supplement). As a negative control, virus was incubated for 10 min in the dark at RT. Subsequently, both irradiated and non-irradiated virus samples were incubated in the dark at 37 °C for 60 min. All manipulation with the samples before and after this incubation, i.e., mixing the compound with the virus, pipetting into a microtiter plate, etc., were performed in daylight. Viral titers were determined by plaque assays (performed also in daylight) and expressed as PFU/mL, as previously described ([Stefanik et al., 2021]). To eliminate the influence of daylight on compound activity, the whole experiment, including all manipulation with samples, was performed in a dark room under red light. The virus sample was mixed with the indicated compounds at concentrations from 0 to 10 μM or 100 μM, incubated for 60 min at 37 °C and virus viability was evaluated using a plaque assay (Fig. 9A).
# [3] = Fluorescence quantum yield determination; format: physicochemical; settings: in DMSO, relative to rhodamin B
# Protocol: The samples’ steady-state fluorescence characteristics were measured in L-format using a Chronos DFD Fluorescence spectrometer (ISS, USA) equipped with a 300 W Cermax xenon arc lamp (ISS, USA), a concave holographic grating monochromator, and a PMT detector. The required amount of each sample was diluted in DMSO and measured in a 1-cm quartz cuvette at a constant temperature of 25 °C. The resulting data were evaluated using Vinci software (ISS, USA) and correlated to the utilized optical configuration.
# Absorption spectra were measured using a high-performance Specord S 600 diode spectrophotometer (Jena Analyst, DE). The required amount of each sample was diluted in DMSO, added to 1-cm quartz cuvette, and measured within the selected absorbance spectrum range, against pure DMSO as a blank, at a constant temperature of 25 °C. The results were evaluated using WinASPECT® software (Jena Analyst, DE).
# Fluorescence quantum yield was determined following a previously described protocol ([Kozma et al., 2005]; [Magde et al., 1999]; [Williams et al., 1983]). The kinetics of the incorporation of compounds into liposome membrane models was determined using steady-state fluorescence spectroscopy at a constant excitation and emission wavelength, according to the corresponding sample excitation and emission maxima. We added 50 μL of LNP suspension to 0.1 mM of the analyte in PBS, and monitored the increase of fluorescence intensity over the time range from 0 to 1400s. The preparation and characterization of the liposomal suspension is described in the supporting information (Fig. S4).
# 1. Supplementary material and methods
# 1.1. Fluorescence quantum yield (QY) determination
# The steady-state fluorescence and absorption data were used for quantum yield determination. QY was determined relative to a reference compound, rhodamin B. Absorbance in the range of 0.01–0.1 was used to calculate the QY. We plotted two calibration curves of integrated emission fluorescence intensity as a function of sample absorbance. […]
# Vero cells [4] = assay: Cytotoxicity assay (Cell Counting Kit-8) in Vero cells; format: cell-based, African Green Monkey; settings: 10 µM, 48 h
# Protocol: (§1) To determine the overall cytotoxicity of the tested compounds, Vero cells were cultured for 24 h in 96-well plates to form a confluent monolayer, and then were treated with the tested compounds at concentrations of 2 and 10 µM. After 48 h of cultivation in the dark at 37 °C under 5% CO2, the cell culture medium was aspirated. The potential cytotoxicity of the tested perylene derivatives was determined based on cell viability using Cell Counting Kit-8 (Dojindo Molecular Technologies, Munich, Germany) according to the manufacturer's instructions. The cell viabilities of compound-treated Vero cells were compared with those of control DMSO-treated cells. We also used the above-described protocol to assess the cytotoxicity of the selected perylene antivirals, at concentrations ranging from 0 to 10 µM, in CaCo-2 and CRFK cells.
# [5] = Spectrofluorometric analysis of interaction with liposomes; format: physicochemical; settings: for penetration into liposomal membranes (in words): EPC/Chol 70/30 mol% liposomes
# [6] = ROS generation measurement with DMA trap in DMSO; format: physicochemical; settings: for ROS generation, DMA trap, under blue light: 465–480 nm, 30 mW/cm^2, 10 min
# Protocol: ROS generation was also estimated using 9,10-dimethylanthracene (DMA), another specific fluorescent singlet oxygen trap, which forms nonfluorescent 9,10-dimethylanthracene endoperoxide after ROS-mediated DMA oxidation. Compounds (0, 0.1, 1, and 10 µM) in DMSO were mixed with DMA (0.5 µM), and these solutions were irradiated for 10 min at room temperature (RT) with light-emitting diodes (LED, 465–480 nm) having approximate power density of 30 mW/cm^2 (device description in Fig. S7). DMA fluorescence intensity was measured at ex/em wavelengths of 370/432 nm in the presence or absence of α-tocopherol (3 µg/mL) as an antioxidant. Singlet oxygen generation was accompanied by a decreased fluorescence signal of the DMA probe ([Zeng et al., 2020]).
# [7] = system: feline infectious peritonitis virus (FIPV); format: cell-based, feline coronavirus (FCoV); settings: 0–10 µM
# CaCo-2 cells = assay: Cytotoxicity assay (Cell Counting Kit-8) in CaCo-2 cells; format: cell-based, human; settings: up to 10 µM
# Protocol: as §1
# CRFK cells = assay: Cytotoxicity assay (Cell Counting Kit-8) in CRFK cells; format: cell-based, Felis catus; settings: up to 10 µM
# Protocol: as §1
# [8] = system: SARS-CoV-2 (Wuhan strain); assay: Viral titer inhibition assay, SARS-CoV-2 in CaCo-2 cells; format: cell-based; settings: 0–10 µM
# [9] = design: method as in Magde et al., 1999; settings: Water; λ = 514 nm; ref Magde et al., 1999; cited from earlier work
Compound,φROS (ROS generation quantum yield) [1] [%],effect of blue light irradiation on cytotoxicity (Vero cells [2]),antiviral activity after blue light irradiation of virus-compound mixture (SARS-CoV-2),fluorescence quantum yield [3] [%],penetration into liposomal membranes (in words) ([5]; 10 µM in PBS),"ROS generation, DMA trap, under blue light [6]",other results
CN(C)c1ccc(C#Cc2ccc3c4cccc5cccc(c6cccc2c63)c54)cc1 [Compound 14],7.1 ± 0.2,no effect,viral titer decreased by less than an order of magnitude,8,slow and very gradual,minimal photodynamic activities,"photodynamic activity (DPBF trap, in words) ([1]; methanol, 450–470 nm): minimal; cell viability (in words) (Vero cells [4]): moderately decreased cell viability; solubility in water (in words) [5]: poorly soluble in water; fluorescence intensity after mixing with liposomes ([5]; at 540 nm, 10 µM in PBS): 10^3 CPS"
O=C(O)c1ccc(-c2ccc3c4cccc5cccc(c6cccc2c63)c54)s1 [Compound 16],59.0 ± 1.8,,,61,penetrated the liposomal membranes very quickly and efficiently,,"steady-state fluorescence signal after mixing with liposomes ([5]; at 520 nm, after 1400 s, 10 µM in PBS): about 10^5 CPS"
O=C(NCCCCO)c1ccc(-c2ccc3c4cccc5cccc(c6cccc2c63)c54)s1 [Compound 17],59.0 ± 2.4,dramatically increased,low-nanomolar,,,significant bleaching,"replication of FIPV in CRFK cells [7]: potently suppressed the replication; antiviral effect under red light only (SARS-CoV-2; 100 µM, dark room, red light, 60 min at 37 °C): no antiviral effect; antiviral activity under red light only (SARS-CoV-2; up to 10 µM, dark room, red light, 60 min at 37 °C): completely disappeared; tolerability by CaCo-2 cells (CaCo-2 cells): well-tolerated; tolerability by CRFK cells (CRFK cells): well-tolerated; anti-SARS-CoV-2 activity in CaCo-2 cells [8]: sub-micromolar; ROS generation, DMA trap, in the dark or with α-tocopherol ([6]; 10 min, dark or α-tocopherol (3 µg/mL)): no/limited bleaching"
CCN(CC)c1ccc2c(-c3ccccc3C(=O)O)c3ccc(=[N+](CC)CC)cc-3oc2c1.[Cl-] [rhodamin B],,,,,,,QYr (fluorescence quantum yield of reference) [9]: 31%
